From publication PMC9632963, “Preclinical characterization and phase I clinical trial of CT053PTSA targets MET, AXL, and VEGFR2 in patients with advanced solid tumors” (Frontiers in Immunology, 2022)

How the values were obtained:
FLT3 [1] = target: T1, FLT3 (Homo sapiens, UniProt P36888); assay: Kinase inhibition assay (LANCE or HTRF); type: biochemical; conditions: ATP at Km
Procedure: (§2) The IC50 values were determined by measuring phosphorylation of peptide substrate poly at ATP concentrations at the Km.

EphA4 = EphA4 (Homo sapiens, UniProt P54764); assay: Kinase inhibition assay (LANCE or HTRF); type: biochemical; conditions: ATP at Km
Procedure: as §2

EphA8 = EphA8 (Homo sapiens, UniProt P29322); assay: Kinase inhibition assay (LANCE or HTRF); type: biochemical; conditions: ATP at Km
Procedure: as §2

TXK = TXK (Homo sapiens, UniProt P42681); assay: Kinase inhibition assay (LANCE or HTRF); type: biochemical; conditions: ATP at Km
Procedure: as §2

Yes = Yes (Homo sapiens, UniProt P07947); assay: Kinase inhibition assay (LANCE or HTRF); type: biochemical; conditions: ATP at Km
Procedure: as §2

VEGFR2 [2] = target: T2, VEGFR2 (Homo sapiens, UniProt P35968); assay: Kinase inhibition assay (LANCE or HTRF); type: biochemical; conditions: ATP at Km
T2 sequence (P35968 20-1356): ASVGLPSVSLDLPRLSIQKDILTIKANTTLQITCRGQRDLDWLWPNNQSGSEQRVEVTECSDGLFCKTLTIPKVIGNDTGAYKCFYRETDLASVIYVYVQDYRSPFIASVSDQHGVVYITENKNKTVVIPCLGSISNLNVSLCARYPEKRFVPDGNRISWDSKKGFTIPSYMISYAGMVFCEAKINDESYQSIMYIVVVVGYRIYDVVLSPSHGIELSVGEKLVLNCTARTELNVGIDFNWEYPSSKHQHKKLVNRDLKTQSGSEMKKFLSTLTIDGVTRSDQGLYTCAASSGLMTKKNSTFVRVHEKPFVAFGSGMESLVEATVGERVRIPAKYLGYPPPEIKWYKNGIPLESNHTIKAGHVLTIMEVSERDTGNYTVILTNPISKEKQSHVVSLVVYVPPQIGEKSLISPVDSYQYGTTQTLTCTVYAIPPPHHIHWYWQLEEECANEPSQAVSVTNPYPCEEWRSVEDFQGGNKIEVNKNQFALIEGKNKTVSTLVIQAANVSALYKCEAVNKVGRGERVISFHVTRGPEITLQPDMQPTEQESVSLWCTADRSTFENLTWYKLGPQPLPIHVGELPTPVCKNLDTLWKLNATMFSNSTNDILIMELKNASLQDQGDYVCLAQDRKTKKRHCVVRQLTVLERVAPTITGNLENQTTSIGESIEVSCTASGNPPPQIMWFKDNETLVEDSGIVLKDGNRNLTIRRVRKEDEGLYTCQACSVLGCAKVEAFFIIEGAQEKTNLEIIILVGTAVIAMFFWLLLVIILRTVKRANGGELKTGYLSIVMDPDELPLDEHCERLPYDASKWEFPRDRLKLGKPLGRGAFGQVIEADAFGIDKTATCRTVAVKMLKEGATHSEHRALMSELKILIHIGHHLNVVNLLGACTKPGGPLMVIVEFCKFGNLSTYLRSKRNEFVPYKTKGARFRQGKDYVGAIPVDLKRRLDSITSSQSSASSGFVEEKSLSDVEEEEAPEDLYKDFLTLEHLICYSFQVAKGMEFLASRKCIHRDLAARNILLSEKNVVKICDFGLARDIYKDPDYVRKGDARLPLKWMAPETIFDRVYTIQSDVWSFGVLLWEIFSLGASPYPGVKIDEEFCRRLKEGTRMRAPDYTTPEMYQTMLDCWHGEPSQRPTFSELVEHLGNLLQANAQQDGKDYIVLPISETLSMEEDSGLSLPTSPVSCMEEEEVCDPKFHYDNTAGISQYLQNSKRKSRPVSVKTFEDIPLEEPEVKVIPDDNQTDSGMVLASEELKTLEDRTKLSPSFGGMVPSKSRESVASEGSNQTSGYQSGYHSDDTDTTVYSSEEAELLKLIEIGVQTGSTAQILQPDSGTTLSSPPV
Procedure: as §2

HIPK4 = HIPK4 (Homo sapiens, UniProt Q8NE63); assay: Kinase inhibition assay (LANCE or HTRF); type: biochemical; conditions: ATP at Km
Sequence of HIPK4 (Q8NE63 whole entry): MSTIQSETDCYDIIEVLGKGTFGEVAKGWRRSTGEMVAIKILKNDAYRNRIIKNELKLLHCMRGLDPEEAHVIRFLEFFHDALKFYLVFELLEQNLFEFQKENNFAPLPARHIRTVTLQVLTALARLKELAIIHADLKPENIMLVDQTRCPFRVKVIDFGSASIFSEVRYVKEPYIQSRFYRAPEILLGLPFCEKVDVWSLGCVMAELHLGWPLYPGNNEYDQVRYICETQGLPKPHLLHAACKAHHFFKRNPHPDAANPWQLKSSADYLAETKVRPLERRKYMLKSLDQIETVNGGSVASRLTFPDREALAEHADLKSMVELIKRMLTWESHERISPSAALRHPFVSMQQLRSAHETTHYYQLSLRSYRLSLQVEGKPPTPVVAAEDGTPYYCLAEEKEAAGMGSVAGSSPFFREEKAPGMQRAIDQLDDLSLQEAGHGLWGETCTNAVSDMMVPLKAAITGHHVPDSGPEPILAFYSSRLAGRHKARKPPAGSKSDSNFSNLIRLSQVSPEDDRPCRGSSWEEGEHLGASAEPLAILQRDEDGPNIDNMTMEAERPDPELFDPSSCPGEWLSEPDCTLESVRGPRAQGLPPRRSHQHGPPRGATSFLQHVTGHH
Procedure: as §2

ITK = ITK (Homo sapiens, UniProt Q08881); assay: Kinase inhibition assay (LANCE or HTRF); type: biochemical; conditions: ATP at Km
Procedure: as §2

Fer = Fer (Homo sapiens, UniProt P16591); assay: Kinase inhibition assay (LANCE or HTRF); type: biochemical; conditions: ATP at Km
Sequence of Fer (P16591 whole entry): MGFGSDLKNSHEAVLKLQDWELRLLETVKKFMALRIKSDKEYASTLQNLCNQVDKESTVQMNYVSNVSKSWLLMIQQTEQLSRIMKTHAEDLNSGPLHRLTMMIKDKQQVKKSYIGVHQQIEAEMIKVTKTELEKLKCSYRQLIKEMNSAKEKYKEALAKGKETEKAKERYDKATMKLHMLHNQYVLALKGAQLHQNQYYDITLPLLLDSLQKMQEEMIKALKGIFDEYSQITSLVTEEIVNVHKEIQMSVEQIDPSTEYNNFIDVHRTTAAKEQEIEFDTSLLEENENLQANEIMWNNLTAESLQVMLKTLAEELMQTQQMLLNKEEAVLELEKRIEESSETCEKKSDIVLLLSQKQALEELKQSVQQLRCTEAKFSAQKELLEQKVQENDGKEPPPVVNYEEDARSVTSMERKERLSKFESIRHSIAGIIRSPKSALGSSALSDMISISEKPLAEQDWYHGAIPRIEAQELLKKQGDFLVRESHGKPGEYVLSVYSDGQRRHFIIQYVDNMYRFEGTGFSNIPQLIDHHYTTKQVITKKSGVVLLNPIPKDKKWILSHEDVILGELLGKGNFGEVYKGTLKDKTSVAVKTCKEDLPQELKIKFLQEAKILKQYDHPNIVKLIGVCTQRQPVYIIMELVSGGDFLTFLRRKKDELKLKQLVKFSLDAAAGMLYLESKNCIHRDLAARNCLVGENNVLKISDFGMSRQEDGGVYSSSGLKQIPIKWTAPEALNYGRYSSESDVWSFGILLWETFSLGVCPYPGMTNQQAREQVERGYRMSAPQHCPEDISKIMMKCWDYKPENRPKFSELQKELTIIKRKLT
Procedure: as §2

FLT1 = FLT1 (Homo sapiens, UniProt P17948); assay: Kinase inhibition assay (LANCE or HTRF); type: biochemical; conditions: ATP at Km
Procedure: as §2

MNK2 = MNK2 (Homo sapiens, UniProt Q9HBH9); assay: Kinase inhibition assay (LANCE or HTRF); type: biochemical; conditions: ATP at Km
Sequence of MNK2 (Q9HBH9 whole entry): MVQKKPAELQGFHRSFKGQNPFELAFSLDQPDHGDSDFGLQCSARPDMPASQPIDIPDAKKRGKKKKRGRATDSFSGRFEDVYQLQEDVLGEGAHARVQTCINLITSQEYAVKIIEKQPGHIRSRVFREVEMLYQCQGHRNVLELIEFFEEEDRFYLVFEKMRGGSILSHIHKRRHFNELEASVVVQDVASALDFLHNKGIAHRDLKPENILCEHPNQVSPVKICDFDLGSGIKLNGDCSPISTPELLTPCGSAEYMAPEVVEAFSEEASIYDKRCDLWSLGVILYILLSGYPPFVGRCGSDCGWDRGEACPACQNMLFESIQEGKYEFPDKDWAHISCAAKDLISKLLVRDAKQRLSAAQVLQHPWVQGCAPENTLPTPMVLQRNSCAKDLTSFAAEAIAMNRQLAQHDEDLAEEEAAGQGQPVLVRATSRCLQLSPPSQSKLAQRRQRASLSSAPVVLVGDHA
Procedure: as §2

Musk = Musk (Homo sapiens, UniProt O15146); assay: Kinase inhibition assay (LANCE or HTRF); type: biochemical; conditions: ATP at Km
Sequence of Musk (O15146 24-869): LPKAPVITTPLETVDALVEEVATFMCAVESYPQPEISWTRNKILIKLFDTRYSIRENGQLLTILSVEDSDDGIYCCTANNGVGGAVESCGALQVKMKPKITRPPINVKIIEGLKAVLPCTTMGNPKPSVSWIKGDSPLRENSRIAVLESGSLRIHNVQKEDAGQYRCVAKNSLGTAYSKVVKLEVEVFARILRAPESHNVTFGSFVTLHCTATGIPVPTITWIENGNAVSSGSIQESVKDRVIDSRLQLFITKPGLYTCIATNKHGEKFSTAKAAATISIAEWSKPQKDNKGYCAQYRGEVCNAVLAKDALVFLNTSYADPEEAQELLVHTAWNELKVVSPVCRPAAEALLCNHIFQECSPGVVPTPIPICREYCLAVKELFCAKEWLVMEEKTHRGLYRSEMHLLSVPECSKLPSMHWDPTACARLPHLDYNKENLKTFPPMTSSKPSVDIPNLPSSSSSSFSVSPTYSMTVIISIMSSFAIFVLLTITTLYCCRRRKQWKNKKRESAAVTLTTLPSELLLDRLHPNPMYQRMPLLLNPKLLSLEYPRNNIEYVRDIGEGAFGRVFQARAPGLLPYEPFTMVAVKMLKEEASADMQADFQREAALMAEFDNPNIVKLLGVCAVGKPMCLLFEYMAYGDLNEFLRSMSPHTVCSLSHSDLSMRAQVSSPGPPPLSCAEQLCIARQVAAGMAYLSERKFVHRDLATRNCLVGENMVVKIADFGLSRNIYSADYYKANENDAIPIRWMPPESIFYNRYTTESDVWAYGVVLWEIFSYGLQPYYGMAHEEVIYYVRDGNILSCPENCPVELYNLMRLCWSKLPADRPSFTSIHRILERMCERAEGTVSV
Procedure: as §2

RET = RET (Homo sapiens, UniProt P07949); assay: Kinase inhibition assay (LANCE or HTRF); type: biochemical; conditions: ATP at Km
Procedure: as §2

RON = RON (Homo sapiens, UniProt Q04912); assay: Kinase inhibition assay (LANCE or HTRF); type: biochemical; conditions: ATP at Km
Procedure: as §2

AXL = AXL (Homo sapiens, UniProt P30530); assay: cell-based
Procedure: (§1) Phosphorylation of the receptors MET, AXL, VEGFR2, and FLT3 was assessed in the transgenic human MKN45 gastric tumor cell line overexpressing MET, mouse embryonic fibroblasts (MEFs) expressing full-length human AXL (AXL-MEFs), human umbilical vein endothelial cells (HUVECs) […], and MEFs expressing full-length human FLT3 (FLT3-wt-MEFs), respectively. […] Then, HUVECs and FLT3-wt-MEFs were stimulated with the ligands VEGF-A (100 ng/ml, for 3 min) and FLT3-ligand (50 ng/ml, for 5 min). MKN45 (overexpressing MET) and AXL-MEFs cells had no stimulation. Cells treated with staurosporine (AXL, FLT3-wt, c-Kit, FLT3, TIE2, VEGF-R2; [1,0E-05 M]) or BMS777607 (MET; [1,0E-06 M]) or sunitinib (VEGF-R3; [1,0E-06 M]) or crizotinib (RON; [1,0E-05 M] were defined as low control (n = 8). The median value of those wells represented the background and was set to 0%. Cells treated with solvent alone were defined as high control (n = 8). The median value of those wells was set to 100%. Test sample-treated cells as well as high and low control were stimulated in identical manner. Quantification of receptor tyrosine kinase autophosphorylation was assessed in 96-well plates via sandwich ELISA using a receptor specific capture antibody and an anti-phosphotyrosine detection antibody. […]

SNU638 = assay: Cell proliferation assay (CellTiter-Glo, 72 hours); type: cell-based; conditions: Homo sapiens, SNU-638, read-out: IC50 anti-proliferative
Procedure: (§3) Human gastric tumor cell lines with high MET expression levels, namely, the GTL-16, MKN45, SNU638, Hs746T, SNU-620, and SNU-5 cell lines, were used in the assay. […] Cell viability was measured after 72 hours using a CellTiter-Glo Luminescent Cell Viability Assay Kit (Promega, WI, USA) according to the manufacturer’s instructions.

SNU620 = assay: Cell proliferation assay (CellTiter-Glo, 72 hours); type: cell-based; conditions: Homo sapiens, read-out: IC50 anti-proliferative
Procedure: as §3

MKN45 = assay: Cell proliferation assay (CellTiter-Glo, 72 hours); type: cell-based; conditions: Homo sapiens, MKN-45, read-out: IC50 anti-proliferative
Procedure: as §3

HS746T = assay: Cell proliferation assay (CellTiter-Glo, 72 hours); type: cell-based; conditions: Homo sapiens, read-out: IC50 anti-proliferative
Procedure: (§4) Human gastric tumor cell lines with high MET expression levels, namely, the GTL-16, MKN45, SNU638, Hs746T, SNU-620, and SNU-5 cell lines, were used in the assay. These cell lines were obtained from American Type Culture Collection (ATCC), Japanese Collection of Research Bioresources (JCRB), Shanghai Institutes of Biological Sciences, CAS (SIBS), Korean Cell Line Bank (KCLB) or National Institutes of Health (NIH). […] Cell viability was measured after 72 hours using a CellTiter-Glo Luminescent Cell Viability Assay Kit (Promega, WI, USA) according to the manufacturer’s instructions.

SNU-484 = assay: Cell proliferation assay (CellTiter-Glo, 72 hours); type: cell-based; conditions: Homo sapiens, read-out: IC50 anti-proliferative
SNU-16 = assay: Cell proliferation assay (CellTiter-Glo, 72 hours); type: cell-based; conditions: Homo sapiens, read-out: IC50 anti-proliferative
Procedure: as §4

AZ521 = assay: Cell proliferation assay (CellTiter-Glo, 72 hours); type: cell-based; conditions: Homo sapiens, AZ-521, read-out: IC50 anti-proliferative
NCI-N87 = assay: Cell proliferation assay (CellTiter-Glo, 72 hours); type: cell-based; conditions: Homo sapiens, read-out: IC50 anti-proliferative
Procedure: (§5) These cell lines were obtained from American Type Culture Collection (ATCC), Japanese Collection of Research Bioresources (JCRB), Shanghai Institutes of Biological Sciences, CAS (SIBS), Korean Cell Line Bank (KCLB) or National Institutes of Health (NIH). […] Cell viability was measured after 72 hours using a CellTiter-Glo Luminescent Cell Viability Assay Kit (Promega, WI, USA) according to the manufacturer’s instructions.

SNU-216 = assay: Cell proliferation assay (CellTiter-Glo, 72 hours); type: cell-based; conditions: Homo sapiens, read-out: IC50 anti-proliferative
Procedure: as §4

KATOIII = assay: Cell proliferation assay (CellTiter-Glo, 72 hours); type: cell-based; conditions: Homo sapiens, KATO III, read-out: IC50 anti-proliferative
Procedure: as §5

NUGC-4 = assay: Cell proliferation assay (CellTiter-Glo, 72 hours); type: cell-based; conditions: Homo sapiens, read-out: IC50 anti-proliferative
Procedure: as §5

NUGC3 = assay: Cell proliferation assay (CellTiter-Glo, 72 hours); type: cell-based; conditions: Homo sapiens, NUGC-3, read-out: IC50 anti-proliferative
Procedure: as §4

[3] = target: KinomeScan panel of 95 kinase binding assays; assay: KinomeScan kinase binding assay, panel of 95 kinase assays; conditions: 10 μM single concentration
Procedure: KinomeScan kinase binding assays were performed as described in reports i.
%Ctrl Calculation: [test compound signal-positive control signalnegative control signal-positive control signal]?100
test compound = compound submitted by Calitor; negative control = DMSO (100%Ctrl); positive control = control compound (0%Ctrl).

VEGFR2 [4] = target: T2, VEGFR2; assay: Cellular kinase phosphorylation assay (sandwich ELISA), HUVECs, VEGF-A stimulated; type: cell-based; design: endogenous in cells; host or cells: HUVEC
Procedure: as §1

FLT3 [5] = target: T1, FLT3; assay: Cellular kinase phosphorylation assay (sandwich ELISA), FLT3-wt-MEFs, FLT3-ligand stimulated; type: cell-based; design: MEFs expressing full-length human FLT3 (FLT3-wt-MEFs); expressed in transfected cells; host or cells: mouse embryonic fibroblasts (MEFs); conditions: FLT3-ligand 50 ng/ml
Procedure: Phosphorylation of the receptors MET, AXL, VEGFR2, and FLT3 was assessed in the transgenic human MKN45 gastric tumor cell line overexpressing MET, mouse embryonic fibroblasts (MEFs) expressing full-length human AXL (AXL-MEFs), human umbilical vein endothelial cells (HUVECs) overexpressing VEGFR-2, and MEFs expressing full-length human FLT3 (FLT3-wt-MEFs), respectively. […] Then, HUVECs and FLT3-wt-MEFs were stimulated with the ligands VEGF-A (100 ng/ml, for 3 min) and FLT3-ligand (50 ng/ml, for 5 min). MKN45 (overexpressing MET) and AXL-MEFs cells had no stimulation. […] Raw data were converted into percent substrate phosphorylation relative to high controls, which were set to 100%.

T1 sequence (P36888 27-993): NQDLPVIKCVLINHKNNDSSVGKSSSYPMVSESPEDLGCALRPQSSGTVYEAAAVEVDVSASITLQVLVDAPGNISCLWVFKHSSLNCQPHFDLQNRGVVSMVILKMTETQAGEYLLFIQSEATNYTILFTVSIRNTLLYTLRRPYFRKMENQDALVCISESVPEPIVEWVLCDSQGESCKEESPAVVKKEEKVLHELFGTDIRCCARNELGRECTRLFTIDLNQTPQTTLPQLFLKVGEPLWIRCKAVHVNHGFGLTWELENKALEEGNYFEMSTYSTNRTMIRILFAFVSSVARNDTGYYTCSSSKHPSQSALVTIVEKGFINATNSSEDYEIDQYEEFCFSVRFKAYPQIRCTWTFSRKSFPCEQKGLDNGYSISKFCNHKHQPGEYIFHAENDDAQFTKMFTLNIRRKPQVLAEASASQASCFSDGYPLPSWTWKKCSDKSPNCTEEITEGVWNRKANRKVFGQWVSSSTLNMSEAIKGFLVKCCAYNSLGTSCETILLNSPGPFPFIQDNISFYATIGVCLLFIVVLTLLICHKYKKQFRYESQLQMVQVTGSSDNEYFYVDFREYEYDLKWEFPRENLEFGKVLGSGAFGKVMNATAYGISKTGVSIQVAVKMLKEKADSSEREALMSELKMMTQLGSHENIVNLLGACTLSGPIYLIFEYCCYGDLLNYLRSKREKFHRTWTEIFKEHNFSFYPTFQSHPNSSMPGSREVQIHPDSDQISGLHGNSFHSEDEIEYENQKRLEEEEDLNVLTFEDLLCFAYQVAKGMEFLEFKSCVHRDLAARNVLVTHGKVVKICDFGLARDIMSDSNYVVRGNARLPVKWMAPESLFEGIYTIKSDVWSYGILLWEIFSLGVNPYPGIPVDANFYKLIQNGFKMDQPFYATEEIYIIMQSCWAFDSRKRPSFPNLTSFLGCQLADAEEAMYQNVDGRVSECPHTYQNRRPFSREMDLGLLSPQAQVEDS

`Cc1c(C(=O)Nc2ccc(Oc3ccnc4cc(OCC(C)(C)O)ccc34)c(F)c2)c(=O)n(-c2ccccc2)n1C` [CT053] showed an IC50 (FLT3 [1]) of 8.6 nM, an IC50 (EphA4) of 370 nM and an IC50 (EphA8) of 620 nM. For the same compound, the IC50 (TXK) was 270 nM, the IC50 (Yes) was 110 nM and the IC50 (VEGFR2 [2]) was 46 nM. It also gave an IC50 (HIPK4) of 180 nM, an IC50 (ITK) of 240 nM and an IC50 (Fer) of 330 nM. The IC50 (FLT1) was 6100 nM, the IC50 (MNK2) was 55 nM and the IC50 (Musk) was 310 nM. For the same compound, the IC50 (RET) was 200 nM, the IC50 (RON) was 160 nM and the IC50 (AXL) was 0.44 nM. It also gave an IC50 (SNU638) of 90 nM, an IC50 (SNU620) of 60 nM and an IC50 (MKN45) of 100 nM. The IC50 (HS746T) was 140 nM, the IC50 (SNU-484) was 8500 nM and the IC50 (SNU-16) was over 10000 nM. The IC50 (AZ521) was over 10000 nM, the IC50 (NCI-N87) was over 10000 nM and the IC50 (SNU-216) was over 10000 nM. The IC50 (KATOIII) was over 10000 nM, the IC50 (NUGC-4) was over 10000 nM and the IC50 (NUGC3) was over 10000 nM. For the same compound, the kinase interaction pattern [3] was “highly specific”, the IC50 (VEGFR2 [4]; HUVECs, VEGF-A 100 ng/ml, read-out: IC50, phosphorylation of VEGFR2) was 1.1 nM and the IC50 (VEGFR2 [4]; printed in Figure 1E, read-out: phospho-VEGF-R2: IC50) was 1.1 nM. The IC50 (FLT3 [5]) was 1.5 nM.
